Data as given in publication PMC3939009, “Thrombin inhibitory activity of some polyphenolic compounds” (Medicinal Chemistry Research, 2013).
Where two headings read alike, the source gives them in different places.

What was measured:
[1] = target: T1, human thrombin (Homo sapiens, UniProt P00734); experiment: Thrombin-induced fibrinogen polymerization; assay type: biochemical; set-up: Thrombin, also known as an active plasma coagulation factor II; purchased Sigma-Aldrich Chemical Co. (St. Louis, MO, USA) T7009; settings: thrombin preincubated with compound
Experimental: In these preparations, to nine volumes of thrombin one volume of polyphenolic compounds was added (final thrombin concentration was 15.8 nM). All tested compounds were dissolved in 50 % DMSO to the initial concentration of 10 mM; other solutions of compounds were also prepared in 50 % DMSO (prepared in 50 mM TBS, pH 7.4). […] Polymerization of fibrin was monitored at 595 nm using a 96-well microtiter plate reader. To each reaction well of the microtiter plate, 100 μl of fibrinogen (3 mg/ml) in 50 mM TBS and 5 mM CaCl2, pH 7.4, were added. […] The maximal velocity of the polymerization process (V max, Δm OD/min) for each absorbance curve was determined (Nowak et al., [2007]).

[2] = target: T1, human thrombin; experiment: BIAcore (SPR) analysis of binding to immobilized thrombin; set-up: Thrombin, also known as an active plasma coagulation factor II; purchased Sigma-Aldrich Chemical Co. (St. Louis, MO, USA) T7009
Experimental: The biosensor assays were performed using the BIAcore 1000 biosensor system. All biosensor analyses were performed with a phosphate-buffered saline (PBS), pH 7.4, as a running buffer. […] The immobilization of thrombin on a biosensor carboxylmethyl dextran surface was performed according to the BIA applications Handbook (BIAcore, [1994]). The process of protein immobilization was performed on a sensor chip CM5 surface by the positively charged functional groups of protein amino acids. The immobilization process consisted of four steps: preconcentration, activation, ligand immobilization and deactivation of the residual NHS esters. […] The temperature during the whole experiment was also constant and was set to 25.0 °C. […] Each of these solutions (10 μl) was injected into an empty sensor chip channel. […] The amount of injected activation mixture was modified, to regulate the amount of immobilized ligand. […] The conditions of the latter experiments were established by numerous pre-tests. The assessed parameters included: the buffer flow rate, the volume of analyte injection, the concentration of analytes, types and concentration of regenerators. […] For each injection of analyte solution, the volume used was 100 μl. After injection of analyte was completed, the dissociation step occurred and the level of the interaction ligand-analyte was measured. During dissociation, the particles non-covalently bound to the ligand were washed out from the working channel. […] To do these calculations, the formulas presented below were used: the association rate […]]; the dissociation rate -d[AB]/dt=kd·[AB]; the equilibrium constants: KA=[AB]/[A]·[B]=ka/kd KD=[A]·[B]/[AB]=kd/ka.

[3] = target: T1, human thrombin; experiment: Amidolytic activity of thrombin (hydrolysis of chromogenic substrate D-Phe-Pip-Arg-pNA); assay type: biochemical; set-up: Thrombin, also known as an active plasma coagulation factor II; purchased Sigma-Aldrich Chemical Co. (St. Louis, MO, USA) T7009; host or cells: purified from human plasma; settings: at 375 μM substrate concentration; compounds 0.1–1,000 μM, preincubation 10 min 37 °C; read-out: IC50, amidolytic activity of human thrombin
Experimental: (§1) All tested compounds were dissolved in 50 % DMSO to the initial concentration of 10 mM; other solutions of compounds were also prepared in 50 % DMSO (prepared in 50 mM TBS, pH 7.4). The final concentration of DMSO in thrombin samples was 5 %. To prepare thrombin control samples, the same volume of solvent (50 % DMSO prepared in 50 mM TBS, pH 7.4) was added as in the case of the compound volume and warmed for 10 min to 37 °C.
To each reaction well, 40 μl of 3 mM chromogenic substrate was added. To initiate the chromogenic reaction, 280 μl of control thrombin (without tested compounds) or thrombin after preincubation with a polyphenolic compound to every reaction well in the same moment was added. The absorbance value was monitored every 12 s for 10 min. The maximal velocity of the reaction (V max, Δm OD/min) for each absorbance curve was determined. IC50 value (parameter) for every polyphenolic compound from inhibition curves was estimated.

[4] = target: T1, human thrombin; experiment: SDS-PAGE analysis of thrombin-induced cross-linked fibrin formation; assay type: biochemical; set-up: Thrombin, also known as an active plasma coagulation factor II; purchased Sigma-Aldrich Chemical Co. (St. Louis, MO, USA) T7009; host or cells: purified from human plasma
Experimental: as §1, with “In these preparations, to nine volumes of thrombin one volume of polyphenolic compounds was added (final thrombin concentration was 15.8 nM). All” for “All”
The reactions incubated at 37 °C were stopped after 5, 15 and 30 min by adding 150 μl of lysis buffer (0.125 M Tris/HCl, 4 % SDS, 8 M urea, 10 % β-mercaptoethanol, pH 6.8). Samples were subjected to SDS-PAGE (polyacrylamide concentration—7.5 %) using Mini-Protean Electrophoresis Cell (Bio-Rad, Hercules, CA). Proteins were stained with Coomassie Brilliant Blue R250 (CBB).

How did the “Effect on thrombin ability to induce fibrinogen polymerization” value ([1]; 10 min 37 °C) turn out when `O=c1c(O)c(-c2ccc(O)c(O)c2)oc2cc(O)cc(O)c12` [Quercetin, quercetin] was run?
Its value is “inhibition of thrombin ability to induce fibrinogen polymerization”.

And the “Concentration causing total inhibition of thrombin activity (fibrin polymerization)” value ([1]; Vmax of fibrinogen polymerization at 595 nm)?
Its value is 50 µM.

And the “K A, equilibrium association constant” value [2]?
The value was 2.59 × 10^7 M^–1.

What about the “K A, equilibrium association constant” value ([2]; 5 sensorgrams, 50 to 1,000 μM) of the same compound?
The value was 2.59e+07 M⁻¹.

What about the Kd ([2]; 5 sensorgrams, 50 to 1,000 μM, read-out: K D, equilibrium dissociation constant) of the same compound?
Its Kd is 0.0387 µM.

And the kon ([2]; 5 sensorgrams, 50 to 1,000 μM, read-out: k a, association rate)?
Its kon is 43.2 M⁻¹ s⁻¹.

And the koff ([2]; 5 sensorgrams, 50 to 1,000 μM, read-out: k d, dissociation rate)?
The koff was 1.67e-06 s⁻¹.

And the “Response (RU)” value ([2]; analyte 1,000 μM, thrombin immobilized on CM5 chip)?
The value was 1,882 RU.

And the IC50 [3]?
Its IC50 is 1.5 µM.

And the “Effect on formation of γ–γ chains and α-polymers” value ([4]; at IC50 concentration of amidolytic inhibition: cyanidin […], quercetin 1.5 μM)?
The value was “also inhibited the formation of γ–γ chains and α-polymers”.

And the “Effect on formation of γ–γ chains and α-polymers” value ([4]; ten times IC50: cyanidin […], quercetin 15 μM, silybin 250 μM)?
The value was “significantly inhibited the formation of γ–γ chains and α-polymers”.
